Experimental data: article PMC5360062, “Comparative insights into the saccharification potentials of a relatively unexplored but robust Penicillium funiculosum glycoside hydrolase 7 cellobiohydrolase” (Biotechnology for Biofuels, 2017)

Molecular target: T1, PfCBH1 (GH7 cellobiohydrolase 1)
T1 construct: natively purified enzyme from the secretome
Experiment: inhibition of pNPL hydrolysis by purified enzyme, Michaelis-Menten/Lineweaver-Burk; IC50 […]
Format: biochemical, Talaromyces funiculosus (Penicillium funiculosum)

SMILES: OC[C@H]1O[C@@H](O[C@H]2[C@H](O)[C@@H](O)C(O)O[C@@H]2CO)[C@H](O)[C@@H](O)[C@@H]1O (stereo partly shown) [G2, cellobiose]
- Ki: 760 ± 54 µM
